Reference: the supplement of paper PMC4862054

tested on: HDQ-P1; details: 72 h
Summary of the method: (§1)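 Breast cancer cell lines in 20 µl suspension were seeded onto 384-well plates that already held compound dissolved in 5 µl medium and were incubated for 72 h. Viability was measured by adding 2.5 µl CellTiter-Blue for 2 h at 37 °C and reading fluorescence at 560/590 nm. Each plate was normalised to vehicle and a positive kill control and checked by Z'-factor. EC50 was taken from a fitted percent-inhibition dose-response curve, censored at the highest concentration, and rows with a drug sensitivity score of zero were removed.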

| Compound | EC50, CellTiter-Blue viability [nM] |
| --- | --- |
| CCN(CC)CCCC(C)Nc1c2ccc(Cl)cc2nc2ccc(OC)cc12 (stereo not drawn) [Mepacrine] | 833 |
| Cc1ccc(-c2cc(C(F)(F)F)nn2-c2ccc(S(N)(=O)=O)cc2)cc1 [Celecoxib] | 67.5 |
| C=CC(=O)N1CCC[C@@H](n2nc(-c3ccc(Oc4ccccc4)cc3)c3c(N)ncnc32)C1 | 407 |
| COc1cc2nccc(Oc3ccc(NC(=O)Nc4cc(C)on4)c(Cl)c3)c2cc1OC [Tivozanib] | 774 |
| CC(=O)Nc1cccc(-n2c(=O)n(C3CC3)c(=O)c3c(Nc4ccc(I)cc4F)n(C)c(=O)c(C)c32)c1 | 4.17 |
| C=CC(=O)Nc1cc2c(Nc3ccc(F)c(Cl)c3)ncnc2cc1OCCCN1CCOCC1 [Canertinib] | 448 |
| CC[C@H](Nc1ncnc2[nH]cnc12)c1nc2cccc(F)c2c(=O)n1-c1ccccc1 [CAL-101] | 5250 |
| CCCCC(=O)OCC(=O)[C@]1(O)Cc2c(O)c3c(c(O)c2[C@@H](O[C@H]2C[C@H](NC(=O)C(F)(F)F)[C@H](O)[C@H](C)O2)C1)C(=O)c1c(OC)cccc1C3=O [Valrubicin] | 236 |

tested on: CAL-148; details: 72 h
Summary of the method: as §1

| Compound | EC50, CellTiter-Blue viability [nM] |
| --- | --- |
| O=C(/C=C/c1cccnc1)NCCCCC1CCN(C(=O)c2ccccc2)CC1 [FK-866] | 34.4 |
| CC[C@@H]1C(=O)N(C)c2cnc(Nc3ccc(C(=O)NC4CCN(C)CC4)cc3OC)nc2N1C1CCCC1 [BI 2536] | 4.74 |
| O=C(O)C1(C(=O)O)CCC1.[NH2-].[NH2-].[Pt+2] [Carboplatin] | 5150 |
| C1CN1c1nc(N2CC2)nc(N2CC2)n1 [Triethylenemelamine] | 3220 |
| O=C(O)C(=O)O.[NH-][C@@H]1CCCC[C@H]1[NH-].[Pt+2] [Oxaliplatin] | 5670 |
| CCN(CC)CCCC(C)Nc1c2ccc(Cl)cc2nc2ccc(OC)cc12 (stereo not drawn) [Mepacrine] | 1140 |
| CC1=C(/C=C/C(C)=C/C=C/C(C)=C/C(=O)O)C(C)(C)CCC1 [Tretinoin] | 43.5 |
| Nc1ccccc1NC(=O)c1ccc(CNC(=O)OCc2cccnc2)cc1 [Entinostat] | 2990 |
| C=CC(=O)Nc1cc2c(Nc3ccc(F)c(Cl)c3)ncnc2cc1OCCCN1CCOCC1 [Canertinib] | 3370 |
| CCCCC(=O)OCC(=O)[C@]1(O)Cc2c(O)c3c(c(O)c2[C@@H](O[C@H]2C[C@H](NC(=O)C(F)(F)F)[C@H](O)[C@H](C)O2)C1)C(=O)c1c(OC)cccc1C3=O [Valrubicin] | 123 |

tested on: MDA-MB-453; details: 72 h
Summary of the method: as §1

| Compound | EC50, CellTiter-Blue viability [nM] |
| --- | --- |
| O=C(/C=C/c1cccnc1)NCCCCC1CCN(C(=O)c2ccccc2)CC1 [FK-866] | 1.68 |
| O=C(O)C1(C(=O)O)CCC1.[NH2-].[NH2-].[Pt+2] [Carboplatin] | 7350 |
| C1CN1c1nc(N2CC2)nc(N2CC2)n1 [Triethylenemelamine] | 9220 |
| O=C(O)C(=O)O.[NH-][C@@H]1CCCC[C@H]1[NH-].[Pt+2] [Oxaliplatin] | 7470 |
| CCN(CC)CCCC(C)Nc1c2ccc(Cl)cc2nc2ccc(OC)cc12 (stereo not drawn) [Mepacrine] | 1260 |
| Cc1ccc(-c2cc(C(F)(F)F)nn2-c2ccc(S(N)(=O)=O)cc2)cc1 [Celecoxib] | 7690 |
| C[C@H]1C[C@@H]2[C@H]([C@@H](O)C[C@@]3(C)[C@H]2CC[C@]3(O)C(=O)CO)[C@@]2(C)C=CC(=O)C=C12 [Methylprednisolone] | 27.7 |
| Nc1ccccc1NC(=O)c1ccc(CNC(=O)OCc2cccnc2)cc1 [Entinostat] | 2860 |
| CCCCC(=O)OCC(=O)[C@]1(O)Cc2c(O)c3c(c(O)c2[C@@H](O[C@H]2C[C@H](NC(=O)C(F)(F)F)[C@H](O)[C@H](C)O2)C1)C(=O)c1c(OC)cccc1C3=O [Valrubicin] | 830 |

Next, values leading:

| EC50, CellTiter-Blue viability [nM] | Compound |
| --- | --- |
| 2.09 | CC[C@@H]1C(=O)N(C)c2cnc(Nc3ccc(C(=O)NC4CCN(C)CC4)cc3OC)nc2N1C1CCCC1 [BI 2536] |
| 18.5 | C=CC(=O)N1CCC[C@@H](n2nc(-c3ccc(Oc4ccccc4)cc3)c3c(N)ncnc32)C1 |
| 2320 | COc1cc2nccc(Oc3ccc(NC(=O)Nc4cc(C)on4)c(Cl)c3)c2cc1OC [Tivozanib] |
| 20.2 | CC(=O)Nc1cccc(-n2c(=O)n(C3CC3)c(=O)c3c(Nc4ccc(I)cc4F)n(C)c(=O)c(C)c32)c1 |
| 243 | C=CC(=O)Nc1cc2c(Nc3ccc(F)c(Cl)c3)ncnc2cc1OCCCN1CCOCC1 [Canertinib] |
| 2180 | CC[C@H](Nc1ncnc2[nH]cnc12)c1nc2cccc(F)c2c(=O)n1-c1ccccc1 [CAL-101] |

tested on: CAL-51; details: 72 h
Summary of the method: as §1

| Compound | EC50, CellTiter-Blue viability [nM] |
| --- | --- |
| O=C(/C=C/c1cccnc1)NCCCCC1CCN(C(=O)c2ccccc2)CC1 [FK-866] | 12.6 |
| CC[C@@H]1C(=O)N(C)c2cnc(Nc3ccc(C(=O)NC4CCN(C)CC4)cc3OC)nc2N1C1CCCC1 [BI 2536] | 12.5 |
| O=C(O)C1(C(=O)O)CCC1.[NH2-].[NH2-].[Pt+2] [Carboplatin] | 9460 |
| O=C(O)C(=O)O.[NH-][C@@H]1CCCC[C@H]1[NH-].[Pt+2] [Oxaliplatin] | 9110 |
| CCN(CC)CCCC(C)Nc1c2ccc(Cl)cc2nc2ccc(OC)cc12 (stereo not drawn) [Mepacrine] | 1950 |
| COc1cc2nccc(Oc3ccc(NC(=O)Nc4cc(C)on4)c(Cl)c3)c2cc1OC [Tivozanib] | 7800 |
| CC(=O)Nc1cccc(-n2c(=O)n(C3CC3)c(=O)c3c(Nc4ccc(I)cc4F)n(C)c(=O)c(C)c32)c1 | 9.94 |
| Nc1ccccc1NC(=O)c1ccc(CNC(=O)OCc2cccnc2)cc1 [Entinostat] | 7860 |
| C=CC(=O)Nc1cc2c(Nc3ccc(F)c(Cl)c3)ncnc2cc1OCCCN1CCOCC1 [Canertinib] | 4690 |
| CCCCC(=O)OCC(=O)[C@]1(O)Cc2c(O)c3c(c(O)c2[C@@H](O[C@H]2C[C@H](NC(=O)C(F)(F)F)[C@H](O)[C@H](C)O2)C1)C(=O)c1c(OC)cccc1C3=O [Valrubicin] | 148 |
